Results: patent US20110105496A1, “Methods For The Treatment Of Myosin Heavy Chain-Mediated Conditions Using 4,7-Dihydrothieno[2,3-B]Pyridine Compounds” (priority 2005, published 2011)

Tested on: alpha-MyHC
Experiment: alpha-MyHC cytoblot process in neonatal rat ventricular myocytes (NRVM)
Type: cell-based

Compound	EC50	Max Plateau	Relative Light Unit (RLU) values (high control, 3 nM T3, low control (vehicle only) 2,000-3,000)
CCC1=C(C(=O)OCCNC(=O)OC(C)(C)C)C(c2ccccc2F)c2c(sc(C(=O)c3ccc(Cl)c(Cl)c3)c2N)N1 (centres unmarked) [Compound 222, Bac protected 3-amino-2-(3,4 dichloro-benzoyl)-4-(2 fluoro-phenyl)-6-methyl-4,7 dihydro-thieno[2,3-b]pyridine-5-carboxylic acid 2-amino-ethyl ester]	94.3 nM	128.75 ± 8.38	–
N[C@@H](Cc1cc(I)c(Oc2ccc(O)c(I)c2)c(I)c1)C(=O)O [Compound T3, 3,5,3′-triiodo-L-thyronine, reference compound]	–	–	8,000-10,000 RLU
CC(=O)NCCOC(=O)C1=C(C)Nc2sc(C(=O)c3ccc(Cl)c(Cl)c3)c(N)c2C1c1ccccc1 (centres unmarked) [compound 214]	–	100.00 ± 0.00	–
CCC1=C(C(=O)OCCN)C(c2ccccc2F)c2c(sc(C(=O)c3ccc(Cl)c(Cl)c3)c2N)N1 (centres unmarked) [compound 221]	22.7 nM	156.50 ± 9.76	–
CC1=C(C(=O)OCCNC(=O)OC(C)(C)C)C(c2ccccc2F)c2c(sc(C(=O)c3ccc(Cl)c(Cl)c3)c2N)N1 (centres unmarked) [compound 223]	10.8 nM	213.11 ± 12.55	–
